Assays:
[1] = molecular target: T1, recombinant integrin α4β7 (Homo sapiens, UniProt P13612+P26010, DEL724-798); assay: Integrin α4β7—MAdCAM-1 ELISA competition assay; format: binding; details: read-out: ELISA α4β7 Assay IC50
T1 construct: purchased R&D Systems 5397-A3-050
T1 sequence (P13612 34-970 limits assumed): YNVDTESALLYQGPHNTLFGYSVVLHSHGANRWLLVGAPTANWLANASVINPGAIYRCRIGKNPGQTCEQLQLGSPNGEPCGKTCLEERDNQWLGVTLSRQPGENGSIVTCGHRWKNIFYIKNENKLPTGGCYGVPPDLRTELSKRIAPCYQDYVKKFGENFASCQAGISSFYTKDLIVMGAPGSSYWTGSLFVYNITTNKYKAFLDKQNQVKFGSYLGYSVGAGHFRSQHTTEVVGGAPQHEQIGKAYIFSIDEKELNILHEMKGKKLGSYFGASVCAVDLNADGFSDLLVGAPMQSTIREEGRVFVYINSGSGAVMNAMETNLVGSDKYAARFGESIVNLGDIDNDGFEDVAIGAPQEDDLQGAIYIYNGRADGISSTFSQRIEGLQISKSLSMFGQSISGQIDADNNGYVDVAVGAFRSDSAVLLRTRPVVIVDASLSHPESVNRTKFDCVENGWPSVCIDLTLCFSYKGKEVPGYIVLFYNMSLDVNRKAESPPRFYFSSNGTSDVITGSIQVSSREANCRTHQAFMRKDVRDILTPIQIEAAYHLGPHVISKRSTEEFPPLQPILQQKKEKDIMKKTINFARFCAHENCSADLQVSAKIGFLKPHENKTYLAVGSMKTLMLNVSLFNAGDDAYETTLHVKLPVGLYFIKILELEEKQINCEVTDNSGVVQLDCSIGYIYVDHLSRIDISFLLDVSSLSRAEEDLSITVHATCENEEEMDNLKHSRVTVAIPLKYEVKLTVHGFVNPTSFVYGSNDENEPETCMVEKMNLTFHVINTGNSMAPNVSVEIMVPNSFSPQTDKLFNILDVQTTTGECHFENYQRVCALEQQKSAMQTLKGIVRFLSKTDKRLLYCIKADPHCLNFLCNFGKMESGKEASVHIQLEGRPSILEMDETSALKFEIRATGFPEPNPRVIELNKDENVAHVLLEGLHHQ
T1 sequence (P26010 20-723 limits assumed): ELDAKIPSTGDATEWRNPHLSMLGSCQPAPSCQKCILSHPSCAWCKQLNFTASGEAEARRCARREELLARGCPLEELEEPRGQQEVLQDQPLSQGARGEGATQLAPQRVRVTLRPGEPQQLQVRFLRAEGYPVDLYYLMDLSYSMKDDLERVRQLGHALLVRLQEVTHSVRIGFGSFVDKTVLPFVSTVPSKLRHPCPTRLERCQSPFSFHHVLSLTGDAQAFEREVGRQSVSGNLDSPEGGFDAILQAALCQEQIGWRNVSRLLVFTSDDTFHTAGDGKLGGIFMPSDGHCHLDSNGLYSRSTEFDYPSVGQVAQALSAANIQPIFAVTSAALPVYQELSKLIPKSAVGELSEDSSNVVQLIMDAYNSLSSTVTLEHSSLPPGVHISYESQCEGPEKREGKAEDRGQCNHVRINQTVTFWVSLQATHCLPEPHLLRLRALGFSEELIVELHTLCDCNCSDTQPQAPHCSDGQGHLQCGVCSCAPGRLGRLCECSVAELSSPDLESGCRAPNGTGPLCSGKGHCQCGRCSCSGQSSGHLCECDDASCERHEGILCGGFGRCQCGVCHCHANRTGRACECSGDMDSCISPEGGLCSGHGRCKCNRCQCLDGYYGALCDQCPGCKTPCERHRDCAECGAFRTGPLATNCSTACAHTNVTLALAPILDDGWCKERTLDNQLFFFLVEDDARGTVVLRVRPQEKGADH

[2] = molecular target: T2, recombinant integrin α4β1 (Homo sapiens, UniProt P05556+P13612); assay: Integrin α4β1—VCAM-1 competition ELISA; format: binding; details: for ELISA Assay Ratio β1/β7: ratio of ELISA IC50s, α4β1 over α4β7; for IC50: read-out: ELISA α4β1 Assay IC50
T2 construct: purchased R&D Systems 5397-A3-050
Procedure, shortened: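 Detection of bound ligand used HRP-conjugated anti-human IgG Fc, 1 h with agitation at room temperature. This followed a 2 h room-temperature, 300 rpm equilibration of compound in the coated wells. Washes were done in 50 mM Tris, 100 mM NaCl, 1 mM MnCl2, 0.05% Tween.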

T2 sequence (P05556 21-728 limits assumed, one chain of several): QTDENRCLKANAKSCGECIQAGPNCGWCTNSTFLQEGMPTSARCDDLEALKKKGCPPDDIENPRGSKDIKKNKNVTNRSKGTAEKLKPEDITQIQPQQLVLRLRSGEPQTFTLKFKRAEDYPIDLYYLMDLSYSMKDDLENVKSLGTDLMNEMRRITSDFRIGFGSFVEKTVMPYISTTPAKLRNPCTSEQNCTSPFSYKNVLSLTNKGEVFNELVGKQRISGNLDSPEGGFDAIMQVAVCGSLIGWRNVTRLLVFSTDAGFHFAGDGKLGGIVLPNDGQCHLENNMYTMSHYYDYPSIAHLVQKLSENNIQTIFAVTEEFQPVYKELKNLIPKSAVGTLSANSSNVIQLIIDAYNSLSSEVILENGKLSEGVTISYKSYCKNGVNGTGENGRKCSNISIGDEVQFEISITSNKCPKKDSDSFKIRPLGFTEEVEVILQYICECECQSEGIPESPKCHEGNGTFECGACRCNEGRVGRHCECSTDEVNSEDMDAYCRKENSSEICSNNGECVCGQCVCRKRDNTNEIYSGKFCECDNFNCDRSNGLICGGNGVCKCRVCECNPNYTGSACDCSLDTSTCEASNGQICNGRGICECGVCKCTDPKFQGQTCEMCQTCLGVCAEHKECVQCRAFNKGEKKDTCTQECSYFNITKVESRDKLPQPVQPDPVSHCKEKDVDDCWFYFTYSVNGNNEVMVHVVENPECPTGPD

CC(C)C[C@@H]1NC(=O)c2ccc(-c3ccc(N4CCN(C(=O)c5ccc(C(=O)N6CCN(c7ccc(-c8ccc9cc8CNC(=O)[C@@H]8CCCN8[C@H](C(=O)NC(C)(C)C)[C@H](C)NC(=O)[C@H]([C@@H](C)O)NC(=O)[C@H](CC(=O)O)NC(=O)[C@H](CC(C)C)NC9=O)cc7)CC6)s5)CC4)cc3)c(c2)CNC(=O)[C@@H]2CCCN2[C@H](C(=O)NC(C)(C)C)[C@H](C)NC(=O)[C@H]([C@@H](C)O)NC(=O)[C@H](CC(=O)O)NC1=O [Compound 470]
IC50 [1]: 5.4 nM
ELISA Assay Ratio β1/β7 [2]: 0.2
IC50 [2]: 1 nM

CC(C)C[C@@H]1NC(=O)c2ccc(-c3ccc(N4CCN(C(=O)c5cc(-c6ccccc6)c(C(=O)N6CCN(c7ccc(-c8ccc9cc8CNC(=O)[C@@H]8CCCN8[C@H](C(=O)NC(C)(C)C)[C@H](C)NC(=O)[C@H]([C@@H](C)O)NC(=O)[C@H](CC(=O)O)NC(=O)[C@H](CC(C)C)NC9=O)cc7)CC6)cc5-c5ccccc5)CC4)cc3)c(c2)CNC(=O)[C@@H]2CCCN2[C@H](C(=O)NC(C)(C)C)[C@H](C)NC(=O)[C@H]([C@@H](C)O)NC(=O)[C@H](CC(=O)O)NC1=O [Compound 469]
IC50 [1]: 36 nM
ELISA Assay Ratio β1/β7 [2]: 0.3
IC50 [2]: 10 nM

CC(C)C[C@@H]1NC(=O)c2ccc(-c3ccc(N4CCN(C(=O)c5cc(C(=O)N6CCN(c7ccc(-c8ccc9cc8CNC(=O)[C@@H]8CCCN8[C@H](C(=O)NC(C)(C)C)[C@H](C)NC(=O)[C@H]([C@@H](C)O)NC(=O)[C@H](CC(=O)O)NC(=O)[C@H](CC(C)C)NC9=O)cc7)CC6)cc(C(=O)N6CCN(c7ccc(-c8ccc9cc8CNC(=O)[C@@H]8CCCN8[C@H](C(=O)NC(C)(C)C)[C@H](C)NC(=O)[C@H]([C@@H](C)O)NC(=O)[C@H](CC(=O)O)NC(=O)[C@H](CC(C)C)NC9=O)cc7)CC6)c5)CC4)cc3)c(c2)CNC(=O)[C@@H]2CCCN2[C@H](C(=O)NC(C)(C)C)[C@H](C)NC(=O)[C@H]([C@@H](C)O)NC(=O)[C@H](CC(=O)O)NC1=O [Compound 520]
IC50 [1]: 6.3 nM
IC50 [2]: 1.2 nM

CC(C)C[C@@H]1NC(=O)c2ccc(-c3ccc(N4CCN(C(=O)CC[C@H](N)C(=O)N5CCN(c6ccc(-c7ccc8cc7CNC(=O)[C@@H]7CCCN7[C@H](C(=O)NC(C)(C)C)[C@H](C)NC(=O)[C@H]([C@@H](C)O)NC(=O)[C@H](CC(=O)O)NC(=O)[C@H](CC(C)C)NC8=O)cc6)CC5)CC4)cc3)c(c2)CNC(=O)[C@@H]2CCCN2[C@H](C(=O)NC(C)(C)C)[C@H](C)NC(=O)[C@H]([C@@H](C)O)NC(=O)[C@H](CC(=O)O)NC1=O [Compound 494]
IC50 [1]: 9.4 nM
ELISA Assay Ratio β1/β7 [2]: 0.2
IC50 [2]: 1.9 nM

CC(C)C[C@@H]1NC(=O)c2ccc(-c3ccc(N4CCN(Cc5ccc(CN6CCN(c7ccc(-c8ccc9cc8CNC(=O)[C@@H]8CCCN8[C@H](C(=O)NC(C)(C)C)[C@H](C)NC(=O)[C@H]([C@@H](C)O)NC(=O)[C@H](CC(=O)O)NC(=O)[C@H](CC(C)C)NC9=O)cc7)CC6)cc5)CC4)cc3)c(c2)CNC(=O)[C@@H]2CCCN2[C@H](C(=O)NC(C)(C)C)[C@H](C)NC(=O)[C@H]([C@@H](C)O)NC(=O)[C@H](CC(=O)O)NC1=O [Compound 500]
IC50 [1]: 12 nM
ELISA Assay Ratio β1/β7 [2]: 0.8
IC50 [2]: 9.9 nM

CC(C)C[C@@H]1NC(=O)C[C@H](CCCCN)N(C)C(=O)[C@H](CCCCNC(=O)c2ccccc2-c2ccccc2C(=O)NCCCC[C@@H]2NC(=O)[C@@H]3CCCN3[C@H](C(=O)NC(C)(C)C)[C@H](C)NC(=O)[C@H]([C@@H](C)O)NC(=O)[C@H](CC(=O)O)NC(=O)[C@H](CC(C)C)NC(=O)C[C@H](CCCCN)N(C)C2=O)NC(=O)[C@@H]2CCCN2[C@H](C(=O)NC(C)(C)C)[C@H](C)NC(=O)[C@H]([C@@H](C)O)NC(=O)[C@H](CC(=O)O)NC1=O [Compound 535]
IC50 [1]: 8.6 nM
ELISA Assay Ratio β1/β7 [2]: 0.9
IC50 [2]: 9.7 nM

CC(C)C[C@@H]1NC(=O)c2ccc(-c3ccc(N4CCN(C(=O)CCCCCCCCCCC(=O)N5CCN(c6ccc(-c7ccc8cc7CNC(=O)[C@@H]7CCCN7[C@H](C(=O)NC(C)(C)C)[C@H](C)NC(=O)[C@H]([C@@H](C)O)NC(=O)[C@H](CC(=O)O)NC(=O)[C@H](CC(C)C)NC8=O)cc6)CC5)CC4)cc3)c(c2)CNC(=O)[C@@H]2CCCN2[C@H](C(=O)NC(C)(C)C)[C@H](C)NC(=O)[C@H]([C@@H](C)O)NC(=O)[C@H](CC(=O)O)NC1=O [Compound 392]
IC50 [1]: 18 nM
ELISA Assay Ratio β1/β7 [2]: 0.3
IC50 [2]: 6.3 nM

CC(C)C[C@@H]1NC(=O)c2ccc(-c3ccc(N4CCN(C(=O)CCC(=O)N5CCN(c6ccc(-c7ccc8cc7CNC(=O)[C@@H]7CCCN7[C@H](C(=O)NC(C)(C)C)[C@H](C)NC(=O)[C@H]([C@@H](C)O)NC(=O)[C@H](CC(=O)O)NC(=O)[C@H](CC(C)C)NC8=O)cc6)CC5)CC4)cc3)c(c2)CNC(=O)[C@@H]2CCCN2[C@H](C(=O)NC(C)(C)C)[C@H](C)NC(=O)[C@H]([C@@H](C)O)NC(=O)[C@H](CC(=O)O)NC1=O [Compound 484]
IC50 [1]: 5.6 nM
IC50 [2]: 1.2 nM

CC(C)C[C@@H]1NC(=O)C[C@H](CCCCN)N(C)C(=O)[C@H](CCCCNC(=O)CCOCCOCCOCCOCCOCCOCCOCCC(=O)NCCCC[C@@H]2NC(=O)[C@@H]3CCCN3[C@H](C(=O)NC(C)(C)C)[C@H](C)NC(=O)[C@H]([C@@H](C)O)NC(=O)[C@H](CC(=O)O)NC(=O)[C@H](CC(C)C)NC(=O)C[C@H](CCCCN)N(C)C2=O)NC(=O)[C@@H]2CCCN2[C@H](C(=O)NC(C)(C)C)[C@H](C)NC(=O)[C@H]([C@@H](C)O)NC(=O)[C@H](CC(=O)O)NC1=O [Compound 536]
IC50 [1]: 9.5 nM
ELISA Assay Ratio β1/β7 [2]: 0.9
IC50 [2]: 8.9 nM

COc1cc(C(=O)N2CCN(c3ccc(-c4ccc5cc4CNC(=O)[C@@H]4CCCN4[C@H](C(=O)NC(C)(C)C)[C@H](C)NC(=O)[C@H]([C@@H](C)O)NC(=O)[C@H](CC(=O)O)NC(=O)[C@H](CC(C)C)NC5=O)cc3)CC2)cc(-c2ccc(C(=O)N3CCN(c4ccc(-c5ccc6cc5CNC(=O)[C@@H]5CCCN5[C@H](C(=O)NC(C)(C)C)[C@H](C)NC(=O)[C@H]([C@@H](C)O)NC(=O)[C@H](CC(=O)O)NC(=O)[C@H](CC(C)C)NC6=O)cc4)CC3)cc2F)c1 [Compound 464]
IC50 [1]: 61 nM
IC50 [2]: 22 nM

CC(C)C[C@@H]1NC(=O)c2ccc(-c3ccc(N4CCN(CC(=O)N5CCN(c6ccc(-c7ccc8cc7CNC(=O)[C@@H]7CCCN7[C@H](C(=O)NC(C)(C)C)[C@H](C)NC(=O)[C@H]([C@@H](C)O)NC(=O)[C@H](CC(=O)O)NC(=O)[C@H](CC(C)C)NC8=O)cc6)CC5)CC4)cc3)c(c2)CNC(=O)[C@@H]2CCCN2[C@H](C(=O)NC(C)(C)C)[C@H](C)NC(=O)[C@H]([C@@H](C)O)NC(=O)[C@H](CC(=O)O)NC1=O [Compound 481]
IC50 [1]: 7.1 nM
ELISA Assay Ratio β1/β7 [2]: 0.2
IC50 [2]: 1.6 nM

CC(C)C[C@@H]1NC(=O)c2ccc(-c3ccc(N4CCN(C(=O)[C@H]5CCC[C@H]5C(=O)N5CCN(c6ccc(-c7ccc8cc7CNC(=O)[C@@H]7CCCN7[C@H](C(=O)NC(C)(C)C)[C@H](C)NC(=O)[C@H]([C@@H](C)O)NC(=O)[C@H](CC(=O)O)NC(=O)[C@H](CC(C)C)NC8=O)cc6)CC5)CC4)cc3)c(c2)CNC(=O)[C@@H]2CCCN2[C@H](C(=O)NC(C)(C)C)[C@H](C)NC(=O)[C@H]([C@@H](C)O)NC(=O)[C@H](CC(=O)O)NC1=O [Compound 458]
IC50 [1]: 6.4 nM
ELISA Assay Ratio β1/β7 [2]: 0.2
IC50 [2]: 1.5 nM
